Test: Antiplatelet activity in rabbit platelet rich plasma assessed as inhibition of ADP-induced platelet aggregation treated for 5 mins before ADP challenge measured for 6 mins by microplate reader
Assay type: functional, cell-free
Conditions: Oryctolagus cuniculus

| Compound | IC50 |
| --- | --- |
| CCCN1C(=O)COc2cc(CNc3ccccc3)ccc21 | 10.1 µM |
| CCCCN1C(=O)COc2cc(CNc3ccccc3)ccc21 | 15.2 µM |
| CC(=O)Oc1ccccc1C(=O)O [ASPIRIN] | 6.07 µM |
| CCCCN1C(=O)COc2cc(CNc3ccccc3C)ccc21 | 18.8 µM |
| Clc1ccccc1CN1CCc2sccc2C1 [TICLOPIDINE] | 3.18 µM |
| CCCN1C(=O)COc2cc(CNc3ccccc3C)ccc21 | 18.8 µM |

Results, then the compound that gave them:

| IC50 | Compound |
| --- | --- |
| 14.2 µM | CCCN1C(=O)COc2cc(CNc3ccc(C)cc3)ccc21 |
| 12.7 µM | CCCCN1C(=O)COc2cc(CNc3cccc(C)c3)ccc21 |
| 13.9 µM | CCCN1C(=O)COc2cc(CNc3cccc(C)c3)ccc21 |

Source: ChEMBL document CHEMBL1932957, “Synthesis of 2H-benzo[b][1,4]oxazin-3(4H)-one derivatives as platelet aggregation inhibitors” (Bioorg Med Chem Lett, 2012)
